# Results as given in patent US20260294863A1, “METHOD OF TREATING FIBROTIC-RELATED CONDITION” (YISSUM RESEARCH DEVELOPMENT COMPANY OF THE HEBREW …, priority 2023, published 2026).
# Entries after “also recorded” stand apart in the source; their conditions may differ.
# Experiments:
# [1] = Body weight in bleomycin-induced skin sclerosis; assay type: in vivo, C57BL/6 mice; conditions: bleomycin, days 24-27
# Method: (§1) Male C57BL/6 mice aged 8 weeks were housed under pathogen-free conditions at a controlled temperature of 22-24° C., humidity and alternating 12-h light/dark cycles and provided with food and water ad libitum. Skin sclerosis was induced as described by Ravanetti et al, (2020). A small incision was made in the skin at the back caudal to the scapulae and subcutaneous pocket was created into which an Alzet micro-osmotic pump was implanted, and the incision closed with two stiches and a surgical clip. The pumps contained bleomycin, (delivered at the rate of 60 U/kg body weight) or saline (control) and were removed 10 days after implantation. The mice were monitored daily until they recovered completely and weighed twice weekly from the beginning of the experiment.
# (§2) Ladostigil (10 mg/kg/day) was administered in the drinking fluid to 10 mice, housed 2/cage, from 3 days before bleomycin pump installation until the end of the experiment. The fluid intake of the mice was measured daily. The dose of ladostigil was adjusted accordingly. Bleomycin alone, (10 mice) and saline controls (6 mice) received regular drinking fluid.
# skin sclerosis = test: Dermal and hypodermal thickness in bleomycin-induced skin sclerosis; assay type: in vivo, C57BL/6 mice; conditions: bleomycin treatment
# Method: as §1, §2
# Skin was harvested on the gluteal region to avoid dermal fibrosis artifact due to proximity to the site of implant. For histological assessment, the samples were dehydrated in a graded ethanol series, clarified in xylene, and paraffin embedded. They were mounted on slides and paraffin was removed. Sections of 5 μm thickness were cut with a rotary microtome and stained with hematoxylin and eosin (H&E)
# [2] = Mortality in bleomycin-induced lung fibrosis; assay type: in vivo, C57BL/6JOlaHsd mice; conditions: bleomycin alone
# Method: The animal model of bleomycin-induced lung fibrosis is widely used to characterize the potential inhibitory effect of newly developed drugs (Distler et al. 2019). Experiments were performed in C57BL/6JOlaHsd male and female mice aged 12-13 weeks. Male mice weighed 23-27.3 g and female mice, 19.4-21.1 g. They were housed under pathogen-free conditions, up to 6 per cage, in IVC cages under a controlled temperature of 22-24° C., humidity and alternating 12-h light/dark cycles and provided with food and water ad libitum. […] Saline (2-3/sex) and bleomycin controls were anesthetized as described above. Bleomycin solution (0.25 mg/kg in 50 μl) was instilled into the lumen of the trachea as shown in a video by Ehrentraut et al. (2019). […] Mice were weighed daily and sacrificed on day 21. Bronchial fluid was collected as described in Ehrentraut et al. (2019). TNFα and IL-6 in the bronchial fluid lavage was measured by ELISA as described in the preceding section.
# TNFα [3] = test: Secretion of TNFα from BzATP/LPS-activated microglia (ELISA); assay type: cell-based, Balb/C mice; conditions: all concentrations tested, added 2 hrs before BzATP and LPS, 0.1% BSA; p<0.01
# Method: (§3) Experiments were performed on primary microglial cells isolated from brains of neonatal Balb/C mice as previously described (Reichert and Rotshenker, 2003). The brains were stripped of their meninges and enzymatically dissociated. Cells were plated on Poly-L-lysine coated flasks for one week, re-plated for 1- to 2-hr on bacteriological plates and non-adherent cells were washed away. Microglia were propagated by incubation in 20% of medium, conditioned by the L-cell line that produces mouse-CSF. They were identified by morphology and positive immune-reactivity to P2y12, F4/80, complement receptor-3 and Galectin-3/MAC-2 (Reichert and Rotshenker 2003; Gitik et al. 2011).
# (§4) Cytokines were measured as previously described (Shamash et al. 2002) using ELISA Max deluxe set (Biolegend, CA, USA) for secreted TNFα and IL-6 proteins and ELISA DuoSet (R&D systems, UK) for secreted and cell associated IL-1β, according to manufacturer's instructions.
# (§5) The effect of ladostigil at concentrations of 1×10^−13 M to 1×10^−9 M on the secretion of cytokine proteins was assessed by adding it to microglia for 2 hr before LPS (0.75 μg/ml) and BzATP (400 μM). Other microglia were treated similarly with the steroid, budesonide as a reference standard at concentrations of 1× 10^−13 to 1× 10^−11 M. Measurements of cytokine secretion were performed 8 hrs after addition of LPS and BzATP. Since the levels of secreted IL-1β were still low, samples were concentrated 2- to 4-fold by an Amicon ultra-centrifugal filter device (Merck-Millipore, Ireland). ELISA was used to quantify the levels of cytokine proteins. Protein content in the microglia lysate was measured by Bradford and levels of cytokines were calculated and presented as pg/μg of microglial protein.
# IL1β = test: Secretion of IL1β from BzATP/LPS-activated microglia (ELISA); assay type: cell-based, Balb/C mice
# Method: as §3, §4, §5
# IL6 = test: Secretion of IL6 from BzATP/LPS-activated microglia (ELISA); assay type: cell-based, Balb/C mice; conditions: all concentrations tested
# Method: as §3, §4, §5
# TNFα [4] = test: TNFα in bronchial fluid, bleomycin-induced lung fibrosis (ELISA); assay type: in vivo, C57BL/6JOlaHsd mice; conditions: AN1284 2.5 mg/kg/day, bleomycin, males; 2.5 mg/kg/day
# Method: (§6) The animal model of bleomycin-induced lung fibrosis is widely used to characterize the potential inhibitory effect of newly developed drugs (Distler et al. 2019). Experiments were performed in C57BL/6JOlaHsd male and female mice aged 12-13 weeks. Male mice weighed 23-27.3 g and female mice, 19.4-21.1 g. They were housed under pathogen-free conditions, up to 6 per cage, in IVC cages under a controlled temperature of 22-24° C., humidity and alternating 12-h light/dark cycles and provided with food and water ad libitum. In order to minimize the stress of daily injection, ladostigil (5 mg/Kg/day) was administered by micro-osmotic pumps, implanted subcutaneously under ketamine/xylazine anesthesia, 5 days before administration of bleomycin, and delivered for 3 weeks to mice of each sex. Saline (2-3/sex) and bleomycin controls were anesthetized as described above. Bleomycin solution (0.25 mg/kg in 50 μl) was instilled into the lumen of the trachea as shown in a video by Ehrentraut et al. (2019). […] TNFα and IL-6 in the bronchial fluid lavage was measured by ELISA as described in the preceding section.
# (§7) Experiments were performed in C57BL/6JOlaHsd male mice aged 12-13 weeks as described for ladostigil. […] Fibrosis was measured by staining with Sirius red as described for ladostigil. TNFα and IL-6 in the bronchial fluid lavage was measured by ELISA as described for ladostigil.
# Activator protein-1 = conditions: cited from earlier work
# [5] = test system: bleomycin-induced lung fibrosis; test: Lung fibrosis score / collagen content in bleomycin-induced lung fibrosis; assay type: in vivo, C57BL/6JOlaHsd mice
# Method: (§8) The animal model of bleomycin-induced lung fibrosis is widely used to characterize the potential inhibitory effect of newly developed drugs (Distler et al. 2019). Experiments were performed in C57BL/6JOlaHsd male and female mice aged 12-13 weeks. Male mice weighed 23-27.3 g and female mice, 19.4-21.1 g. They were housed under pathogen-free conditions, up to 6 per cage, in IVC cages under a controlled temperature of 22-24° C., humidity and alternating 12-h light/dark cycles and provided with food and water ad libitum. In order to minimize the stress of daily injection, ladostigil (5 mg/Kg/day) was administered by micro-osmotic pumps, implanted subcutaneously under ketamine/xylazine anesthesia, 5 days before administration of bleomycin, and delivered for 3 weeks to mice of each sex. Saline (2-3/sex) and bleomycin controls were anesthetized as described above. Bleomycin solution (0.25 mg/kg in 50 μl) was instilled into the lumen of the trachea as shown in a video by Ehrentraut et al. (2019). […] Mice were weighed daily and sacrificed on day 21. Bronchial fluid was collected as described in Ehrentraut et al. (2019). TNFα and IL-6 in the bronchial fluid lavage was measured by ELISA as described in the preceding section.
# Specimens taken from the left lung were embedded in paraffin and cut into 5 μm-thick slices. They were put on slides and paraffin was removed. They were rehydrated and stained with a solution of Sirius red (100 mg/100 ml of [COMPOUND LEFT OUT], rinsed in distilled water until clear, dehydrated and mounted in a resinous medium. The red stain (also called “Sirius red” stain) is one of the best understood histochemical techniques. It relies on the birefringent properties of collagen and is much more specific than the other common collagen stains, Pulmonary fibrosis was evaluated on a score of 0-4 on 15-20 different fields taken from each lung section, according to the area and intensity of fibrotic staining in the field, excluding that in blood vessels. Two independent scientists blinded to the treatment performed the analysis. For TGFβ1 staining, slides were deparaffinized and rehydrated. Antigen retrieval was performed in Tris-based buffer, pH 9.0. Endogenous peroxidase activity was quenched by incubation in 3% H2O2. The tissue was permeabilized with Triton X-100 0.1% in PBS. After blocking, sections were incubated with primary antibody: diluted rabbit recombinant monoclonal TGFβ1 antibody (Abcam ab215715) over night, at 4° C. Slices were further incubated with the secondary antibody: ImmPRESS®-HRP Goat Anti-Rabbit IgG Polymer Detection Kit, Peroxidase (Vector labs VE-MP-7451-15) at room temperature. For color development, sections were incubated in peroxidase substrate solution DAB, at room temperature until desired stain intensity developed. They were then counterstained with filtered hematoxylin and cosin, cleared and mounted.
# (§9) Experiments were performed in C57BL/6JOlaHsd male mice aged 12-13 weeks as described for ladostigil. AN1284 (2.5 mg/kg/day) was administered by micro-osmotic pumps, implanted subcutaneously under ketamine/xylazine anesthesia, 5 days before administration of bleomycin and delivered for 3 weeks. Mice were weighed daily, sacrificed on day 21 and bronchial fluid was collected. Fibrosis was measured by staining with Sirius red as described for ladostigil. TNFα and IL-6 in the bronchial fluid lavage was measured by ELISA as described for ladostigil.
# NLRP3 = NLRP3 in RAW cells activated by LPS; assay type: cell-based
# Method: (§10) RAW 264.7 cells were seeded at a density of 1×10^5 cells per well in 48-well culture plates and grown overnight in DMEM supplemented as indicated above. The wells were washed with PBS (pH 7.4). AN1284, prepared in sterile double distilled water and Budesonide (positive control) were added to give final concentrations ranging from 1× 10^−13-1×10^−7M in medium containing 2% FCS. The cells were incubated for 2 h at 37° C. prior to stimulation with LPS, 2.5 μg/mL from Escherichia coli (Sigma-Aldrich serotype 0111: B4). Supernatants were harvested after 8 hrs for measurement of TNF-α and 24 h for IL-6. TNF-α and IL-6 protein were detected by a commercial ELISA kit (Biolegend, San Diego, CA, USA) according to the manufacturer's instructions. Each concentration of each compound was tested in two-three separate experiments in 6 wells per concentration.
# (§11) RAW 264.7 cells were lysed in 0.1 ml of buffer containing 150 mM Tris-Cl (pH 6.8), 10% Glycerol, 0.6% SDS, Bromophenol Blue and 100 mM β-Mercaptoethanol. Lysates were collected and heated at 95° C. for 5 min, then centrifuged for 3 min at 2,240 g. Supernatants were used for gel separation. Protein concentration of the lysates was determined by using Coomassie Brilliant Blue staining. […] Molecular changes were assessed semi-quantitatively after incubation with primary antibodies for relevant proteins.
# MAPK p38 = conditions: cited from earlier work
# Nrf2 = Nrf2 in RAW cells activated by LPS; assay type: cell-based
# Method: as §10, §11
# [6] = test system: non-alcoholic steatohepatitis (NASH); conditions: 1 mg/kg/day, two months, micro-osmotic pumps; cited from earlier work
# Egr1 = Egr1 in RAW cells activated by LPS; assay type: cell-based
# Method: as §10, §11
# IL-6 = IL-6 in bronchial fluid, bleomycin-induced lung fibrosis (ELISA); assay type: in vivo, C57BL/6JOlaHsd mice; conditions: AN1284 2.5 mg/kg/day, bleomycin, males; 2.5 mg/kg/day
# Method: as §6, §7
# [7] = test system: LPS-activated macrophages; conditions: cited from earlier work
# [8] = Body weight in bleomycin-induced lung fibrosis; assay type: in vivo, C57BL/6JOlaHsd mice; conditions: AN1284 2.5 mg/kg/day, days 11 and 14 after bleomycin, males
# Method: as §8, §9
# [9] = test system: cytotoxicity resulting from oxidative stress; conditions: cited from earlier work
# [10] = test system: Aryl hydrocarbon receptor (AhR); conditions: 1 mg/kg/day, two months, NASH mice; cited from earlier work
molecule,measurement,setting,value
bleomycin [reference compound],weight gain compared with saline,[1],smaller increase in weight
same,hypodermis thickness change caused,skin sclerosis,thinning of the hypodermis
same,skin (dermal) thickness change caused,skin sclerosis,thickening
same,mortality,"[2]; females, days 7 to 17 (6/38)",16%
same,mortality,"[2]; males, days 16-19 (5/16)",31%
"CCCC1O[C@@H]2C[C@H]3[C@@H]4CCC5=CC(=O)C=C[C@]5(C)[C@H]4[C@@H](O)C[C@]3(C)[C@]2(C(=O)CO)O1 (stereo partly drawn) [budesonide, reference compound]",reduction of TNFα release,TNFα [3],reduced the 3 cytokines significantly
same,reduction of IL1β release,"IL1β; all concentrations tested, added 2 hrs before BzATP and LPS, 0.1% BSA, p<0.01",reduced the 3 cytokines significantly
same,reduction of IL1β compared with reduction of TNFα,"IL1β; ladostigil 1×10^−9 M, budesonide 1×10^−11 M",greater than that of TNFα
same,reduction of IL6 release,"IL6; added 2 hrs before BzATP and LPS, 0.1% BSA, p<0.01",reduced the 3 cytokines significantly
same,reduction of IL6 compared with reduction of TNF,IL6; p<0.001,greater than those of TNF
"CC(C)NCCCN1CCc2ccccc21.Cl.Cl [AN1284, 3-(indolin-1-yl)-N-isopropylpropan-1-amine 2HCl]",TNFα in bronchial fluid,TNFα [4],does not affect levels of pro-inflammatory cytokines; also recorded: did not reduce
same,nuclear translocation of Activator protein-1,Activator protein-1,inhibiting phosphorylation of MAPK p38 and nuclear translocation of Activator protein-1
same,collagen levels / fibrosis score,"[5]; AN1284 2.5 mg/kg/day by micro-osmotic pumps, males",reduced fibrosis score
same,fibrosis (overall conclusion),[5]; bleomycin-induced lung fibrosis murine model,shown to reduce fibrosis
same,NLRP3,"NLRP3; LPS + AN1284 0.1 nM, LPS + vehicle 1.6",1.1
same,expression of NLRP3,NLRP3; LPS-activated RAW cells,effectively reduce expression of NLRP3
same,phosphorylation of MAPK p38,MAPK p38,inhibiting phosphorylation of MAPK p38
same,Nrf2,"Nrf2; LPS + AN1284 0.1 nM, LPS + vehicle 2.3",1.6
same,expression of Nrf2,Nrf2; LPS-activated RAW cells,decreased the expression of Nrf2
same,"steatosis, lipogenesis, and fibrosis",[6],"attenuated steatosis, lipogenesis, and fibrosis"
same,Egr1,"Egr1; LPS + AN1284 0.1 nM, LPS + vehicle 2.7",1.3
same,EGR1,Egr1; LPS-activated macrophages,reduced ERG1 in macrophages
same,IL-6 in bronchial fluid,IL-6,does not affect levels of pro-inflammatory cytokines; also recorded: did not reduce
same,release of pro-inflammatory cytokines,[7],reduced the release of pro-inflammatory cytokines
same,body weight loss,[8],reduced body weight loss
same,cytotoxicity resulting from oxidative stress,[9],inhibited cytotoxicity
same,activation of AhR,[10],activation of the Aryl hydrocarbon receptor (AhR)
